Measurements taken from EP3074389B1, “QUINOLINE DERIVATIVES AS BROMODOMAIN INHIBITORS” (Gilead Sciences, Inc., priority 2013, dated 2015).

Columns and labels:
[1] = target: BRD4 domain 1 (Homo sapiens, UniProt O60885); assay: Kd determination of inhibitors binding to BRD4 domain 1 (Epic label-free platform); settings: direct binding to immobilized BRD4 domain 1; tripling dilution series from 20µM; about 1hr equilibrium; rounded to whole number; read-out: Epic Kd BRD41
Method: (§1) Kd Determination of Inhibitors Binding to BRD4 Domain 1 and Domain 2
(§2) The binding of small molecule inhibitors to either BRD4 domain 1 or domain 2 were determined using the Epic, high-throughput, label-free platform (Corning, Lowell, MA). The Epic instrument incorporates an evanescent waveguide sensor within each well of its proprietary 384-well microplates. Direct binding of inhibitors to BRD4 immobilized onto the microplate well surface can be detected by exposing the waveguide to a broadband light source. The resulting resonant wavelength shift (measured in picometers (pm)) is proportional to the mass bound to the surface. Epic biochemical plates (Corning, Lowell, MA) were activated by adding 15 µL/well of 200 mM EDC and 50 mM Sulfo-NHS (Pierce Thermo Scientific, Rockford, IL) and incubated for 60 minutes at room temperature. Plates were washed three times with MilliQ water and dried by centrifugation (1 minute at 400 rpm). BRD4 immobilization was accomplished by resuspending the protein at a concentration of 150 µg/mL in 20 mM HEPES (pH 7) and adding 10 µL/well. […] Compound/inhibitor binding was determined by calculating difference between the baseline (first read) and second read. The resulting binding response was fitted to a single site binding isotherm in order to determine an equilibrium dissociation constant (Kd).

[2] = target: BRD4 domain 2 (Homo sapiens, UniProt O60885); assay: Kd determination of inhibitors binding to BRD4 domain 2 (Epic label-free platform); settings: direct binding to immobilized BRD4 domain 2; tripling dilution series from 20µM; about 1hr equilibrium; rounded to whole number
Method: as §1, §2

Structure (SMILES)	Kd [1] [µM]	Kd [2] [µM]
Cc1noc(C)c1-c1cc(S(=O)(=O)N[C@H]2C[C@@H](N)C2)c2cccnc2c1 [Compound 34, N-((1S,3S)-3-aminocyclobutyl)-7-(3,5-dimethylisoxazol-4-yl)quinoline-5-sulfonamide]	5.48	11.1
Cc1noc(C)c1-c1cc(S(=O)(=O)N[C@@H]2CCC[C@H]2C(=O)NC2CCCC2)c2cccnc2c1 [Compound 35, (1R,2R)-N-cyclopentyl-2-(7-(3,5-dimethylisoxazol-4-yl)quinoline-5-sulfonamido)cyclopen tanecarboxamide]	> 20	19.7
Cc1noc(C)c1-c1cc(S(=O)(=O)N[C@H]2C[C@@H]3CC[C@H]2C3)c2cccnc2c1 [Compound 38, N-((1S,2S,4R)-bicyclo[2.2.1]heptan-2-yl)-7-(3,5-dimethylisoxazol-4-yl)quinoline-5-sulfonamide]	3.14	3.49
Cc1noc(C)c1-c1cc(S(=O)(=O)NC2CCC(C)(C)C2)c2cccnc2c1 (stereo not shown) [Compound 39, N-(3,3-dimethylcyclopentyl)-7-(3,5-dimethylisoxazol-4-yl)quinoline-5-sulfonamide]	5.56	13.4
Cc1noc(C)c1-c1cc(S(=O)(=O)NC2CC3CCC(C2)N3C)c2cccnc2c1 (stereo not shown) [Compound 40, 7-(3,5-dimethylisoxazol-4-yl)-N-(8-methyl-8-azabicyclo[3.2.1]octan-3-yl)quinoline-5-sulfonamide]	16	> 20
Cc1noc(C)c1-c1cc(S(=O)(=O)N[C@@H]2CCC[C@H]2C(=O)NCc2nccn2C)c2cccnc2c1 [Compound 42, (1R,2R)-2-(7-(3,5-dimethylisoxazol-4-yl)quinoline-5-sulfonamido)-N-((1-methyl-1H-imidazol-2-yl)methyl)cyclopentan ecarboxamide]	16.2	6.84
Cc1noc(C)c1-c1cc(S(=O)(=O)N[C@@H]2CCC[C@@H]2C(=O)NCc2nccn2C)c2cccnc2c1 [Compound 43, (1S,2R)-2-(7-(3,5-dimethylisoxazol-4-yl)quinoline-5-sulfonamido)-N-((1-methyl-1H-imidazol-2-yl)methyl)cyclopentan ecarboxamide]	> 20	10.7
Cc1noc(C)c1-c1cc(S(=O)(=O)NC2CCCC2)c2ccc(N3CCNCC3)nc2c1 [Compound 44, N-cyclopentyl-7-(3,5-dimethylisoxazol-4-yl)-2-(piperazin-1-yl)quinoline-5-sulfonamide]	0.799	0.504
Cc1noc(C)c1-c1cc(S(=O)(=O)N[C@@H]2CCC[C@H]2NC(=O)OC(C)(C)C)c2cccnc2c1 [Compound 45, tert-butyl ((1R,2R)-2-(7-(3,5-dimethylisoxazol-4-yl)quinoline-5-sulfonamido)cyclopentyl)carbamate]	14.6	> 20
Cc1noc(C)c1-c1cc(S(=O)(=O)N[C@@H]2CCC[C@H]2C(=O)N2CCNCC2)c2cccnc2c1 [Compound 47, 7-(3,5-dimethylisoxazol-4-yl)-N-((1R,2R)-2-(piperazine-1-carbonyl)cyclopentyl) quinoline-5-sulfonamide]	3.16	2.27
Cc1noc(C)c1-c1cc(S(=O)(=O)NCCc2ccccc2)c2ccc(=O)[nH]c2c1 [Compound 48, 7-(3,5-dimethylisoxazol-4-yl)-2-oxo-N-phenethyl-1,2-dihydroquinoline-5-sulfonamide]	> 20	20
Cc1noc(C)c1-c1cc(S(=O)(=O)NC2(C#N)CC2)c2cccnc2c1 [Compound 49, N-(1-cyanocyclopropyl)-7-(3,5-dimethylisoxazol-4-yl)quinoline-5-sulfonamide]	> 20	18.8
Cc1noc(C)c1-c1cc(S(=O)(=O)N[C@@H]2CCC[C@@H]2C(=O)N2CCNCC2)c2cccnc2c1 [Compound 50, 7-(3,5-dimethylisoxazol-4-yl)-N-((1R,2S)-2-(piperazine-1-carbonyl)cyclopentyl) quinoline-5-sulfonamide]	7.17	8.13
CC(=O)N[C@H]1CCC[C@H]1NS(=O)(=O)c1cc(-c2c(C)noc2C)cc2ncccc12 [Compound 51, N-((1S,2R)-2-(7-(3,5-dimethylisoxazol-4-yl)quinoline-5-sulfonamido)cyclopentyl)acetamide]	7.62	6.45
Cc1noc(C)c1-c1cc(S(=O)(=O)NC2(C#N)CCCC2)c2cccnc2c1 [Compound 52, N-(1-cyanocyclopentyl)-7-(3,5-dimethylisoxazol-4-yl)quinoline-5-sulfonamide]	> 20	11.7
CCN[C@H]1CCC[C@H]1NS(=O)(=O)c1cc(-c2c(C)noc2C)cc2ncccc12 [Compound 53, 7-(3,5-dimethylisoxazol-4-yl)-N-((1R,2S)-2-(ethylamino)cyclopentyl)quinoline-5-sulfonamide]	> 20	8.64
CCOC(=O)N[C@H]1CCC[C@H]1NS(=O)(=O)c1cc(-c2c(C)noc2C)cc2ncccc12 [Compound 54, ethyl ((1S,2R)-2-(7-(3,5-ditnethylisoxazol-4-yl)quinoline-5-sulfonamido)cyclopentyl)carbamate]	5.87	7.99
Cc1noc(C)c1-c1cc(S(=O)(=O)NC2CCCC2)c2cc(N3CCOCC3)c(=O)[nH]c2c1 [Compound 55, N-cyclopentyl-7-(3,5-dimethylisoxazol-4-yl)-3-morpholino-2-oxo-1,2-dihydroquinoline-5-sulfonamide]	1.34	0.726

More lines, now with the values ahead:

Kd [1] [µM]	Kd [2] [µM]	Structure (SMILES)
0.253	0.241	Cc1noc(C)c1-c1cc(S(=O)(=O)NC2CCCC2)c2cc(-c3cccnc3)c(=O)[nH]c2c1 [Compound 29, N-cyclopentyl-7-(3,5-dimethylisoxazol-4-yl)-2-oxo-3-(pyridin-3-yl)-1,2-dihydroquinoline-5-sulfonamide]
6.4	1.7	Cc1noc(C)c1-c1cc(S(=O)(=O)NC2CCCC2)c2cc(-c3cnc(C)n3C)c(=O)[nH]c2c1 [Compound 30, N-cyclopentyl-3-(1,2-dimethyl-1H-imidazol-5-yl)-7-(3,5-dimethylisoxazol-4-yl)-2-oxo-1,2-dihydroquinoline-5-sulfonamide]
0.867	0.634	Cc1noc(C)c1-c1cc(S(=O)(=O)NC2CCCC2)c2cc(C#N)c(=O)[nH]c2c1 [Compound 31, 3-cyano-N-cyclopentyl-7-(3,5-dimethylisoxazol-4-yl)-2-oxo-1,2-dihydroquinoline-5-sulfonamide]
0.717	0.519	Cc1noc(C)c1-c1cc(S(=O)(=O)NC2CCCC2)c2cc(-n3ccnc3)c(=O)[nH]c2c1 [Compound 32, N-cyclopentyl-7-(3,5-dimethylisoxazol-4-yl)-3-(1H-imidazol-1-yl)-2-oxo-1,2-dihydroquinoline-5-sulfonamide]
0.76	0.561	Cc1noc(C)c1-c1cc(S(=O)(=O)NC2CCCC2)c2cc(-n3cccn3)c(=O)[nH]c2c1 [Compound 33, N-cyclopentyl-7-(3,5-dimethylisoxazol-4-yl)-2-oxo-3-(1H-pyrazol-1-yl)-1,2-dihydroquinoline-5-sulfonamide]
1.45	0.718	Cc1noc(C)c1-c1cc(S(=O)(=O)NC2CCCC2)c2cc(-c3ccccn3)c(=O)[nH]c2c1 [Compound 36, N-cyclopentyl-7-(3,5-dimethylisoxazol-4-yl)-2-oxo-3-(pyridin-2-yl)-1,2-dihydroquinoline-5-sulfonamide]
2.09	0.757	Cc1noc(C)c1-c1cc(S(=O)(=O)NC2CCCC2)c2cc(-c3ncccn3)c(=O)[nH]c2c1 [Compound 37, N-cyclopentyl-7-(3,5-dimethylisoxazol-4-yl)-2-oxo-3-(pyrimidin-2-yl)-1,2-dihydroquinoline-5-sulfonamide]
0.4	0.45	Cc1noc(C)c1-c1cc(S(=O)(=O)NC2CCCC2)c2cc(N)c(=O)[nH]c2c1 [Compound 41, 3-amino-N-cyclopentyl-7-(3,5-dimethylisoxazol-4-yl)-2-oxo-1,2-dihydroquinoline-5-sulfonamide]
0.933	0.611	Cc1noc(C)c1-c1cc(S(=O)(=O)NC2CCCC2)c2cc(N3CCNCC3)c(=O)[nH]c2c1 [Compound 56, N-cyclopentyl-7-(3,5-dimethylisoxazol-4-yl)-2-oxo-3-(piperazin-1-yl)-1,2-dihydroquinoline-5-sulfonamide]
0.444	0.477	Cc1noc(C)c1-c1cc(S(=O)(=O)NC2CCCC2)c2cc(NCCO)c(=O)[nH]c2c1 [Compound 57, N-cyclopentyl-7-(3,5-dimethylisoxazol-4-yl)-3-((2-hydroxyethyl)amino)-2-oxo-1,2-dihydroquinoline-5-sulfonamide]
0.313	0.32	COCCNc1cc2c(S(=O)(=O)NC3CCCC3)cc(-c3c(C)noc3C)cc2[nH]c1=O [Compound 58, N-cyclopentyl-7-(3,5-dimethylisoxazol-4-yl)-3-((2-methoxyethyl)amino)-2-oxo-1,2-dihydroquinoline-5-sulfonamide]
